Source: PubChem BioAssay (NCI)
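Grown in 96-well plates, cells were treated for 48 hours with each compound at five concentrations. Insufficient inhibition: endpoint recorded as highest concentration tested. GI50 = concentration required for 50% inhibition of growth. TGI denotes the concentration required for complete inhibition of growth.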

Key:
Experiment in all cases: growth of human tumour cells (NCI), 48 h
[1] = system: ACHN renal
[2] = system: HCC-2998 colon
[3] = system: OVCAR-8 ovarian
[4] = system: NCI-H460 lung
[5] = system: CCRF-CEM leukemia
[6] = system: SR leukemia
[7] = system: OVCAR-5 ovarian
[8] = system: HOP-92 NSCLC
[9] = system: HS 578T breast
[10] = system: U251 CNS
[11] = system: UO-31 renal
[12] = system: BT-549 breast
[13] = system: OVCAR-3 ovarian
[14] = system: UACC-62 melanoma
[15] = system: EKVX NSCLC
[16] = system: 786-0 renal
[17] = system: SN12C renal
[18] = system: MCF7 breast
[19] = system: RPMI-8226 leukemia
[20] = system: SK-MEL-28 melanoma
[21] = system: SF-268 CNS
[22] = system: LOX IMVI melanoma
[23] = system: SF-539 CNS
[24] = system: CAKI-1 renal
[25] = system: MOLT-4 leukemia
[26] = system: RXF 393 renal
[27] = system: OVCAR-4 ovarian
[28] = system: TK-10 renal
[29] = system: KM12 colon
[30] = system: SNB-19 CNS
[31] = system: UACC-257 melanoma
[32] = system: K-562 leukemia
[33] = system: COLO 205 colon
[34] = system: NCI-H522 lung
[35] = system: T-47D breast
[36] = system: HCT-116 colon
[37] = system: PC-3 prostate
[38] = system: HT29 colon
[39] = system: SF-295 CNS
[40] = system: HCT-15 colon
[41] = system: NCI-H226 lung
[42] = system: NCI/ADR-RES ovarian
[43] = system: IGROV1 ovarian
[44] = system: A498 renal
[45] = system: SK-MEL-5 melanoma
[46] = system: MALME-3M melanoma
[47] = system: SK-MEL-2 melanoma
[48] = system: SW-620 colon
[49] = system: SNB-75 CNS
[50] = system: HL-60(TB) leukemia
[51] = system: A549 NSCLC
[52] = system: NCI-H23 lung
[53] = system: DU-145 prostate
[54] = system: MDA-MB-435
[55] = system: M14 melanoma
[56] = system: HOP-62 NSCLC
[57] = system: SK-OV-3 ovarian
[58] = system: MDA-MB-231 breast

O=C1c2ccccc2C(=O)N1/N=C1/SC(=Nc2ccccc2)C(=Nc2ccccc2)N1c1ccccc1
TGI [1]: > 100 µM
TGI [2]: > 100 µM
TGI [3]: > 75.9 µM
TGI [4]: > 100 µM
TGI [5]: > 90.3 µM
TGI [6]: > 31.6 µM
TGI [7]: > 100 µM
TGI [8]: > 100 µM
TGI [9]: > 100 µM
TGI [10]: > 100 µM
TGI [11]: > 100 µM
TGI [12]: > 100 µM
TGI [13]: > 100 µM
TGI [14]: > 100 µM
TGI [15]: > 100 µM
TGI [16]: > 41.7 µM
TGI [17]: > 100 µM
TGI [18]: > 100 µM
TGI [19]: > 79.1 µM
TGI [20]: > 69 µM
TGI [21]: > 100 µM
TGI [22]: > 100 µM
TGI [23]: > 100 µM
TGI [24]: > 100 µM
TGI [25]: > 100 µM
TGI [26]: 14.3 µM
TGI [27]: > 100 µM
TGI [28]: > 100 µM
TGI [29]: > 100 µM
TGI [30]: > 100 µM
TGI [31]: > 100 µM
TGI [32]: > 100 µM
TGI [33]: > 100 µM
TGI [34]: > 100 µM
TGI [35]: > 100 µM
TGI [36]: > 100 µM
TGI [37]: > 100 µM
TGI [38]: > 100 µM
TGI [39]: > 100 µM
TGI [40]: > 100 µM
TGI [41]: > 100 µM
TGI [42]: > 100 µM
TGI [43]: > 100 µM
TGI [44]: > 63.1 µM
TGI [45]: > 90.3 µM
TGI [46]: > 84.7 µM
TGI [47]: > 100 µM
TGI [48]: > 100 µM
TGI [49]: > 54.1 µM
TGI [50]: > 100 µM
TGI [51]: > 100 µM
TGI [52]: > 88.6 µM
TGI [53]: > 100 µM
TGI [54]: > 100 µM
TGI [55]: > 100 µM
TGI [56]: > 100 µM

Cc1cccc2cc(/C=C/C(=O)/C=C/c3ccc(Cl)cc3)c(=O)[nH]c12
GI50 [4]: > 100 µM
TGI [4]: > 100 µM
GI50 [5]: 3.98 µM
TGI [5]: 88.8 µM
GI50 [6]: 2.72 µM
TGI [6]: 11.6 µM
GI50 [7]: > 100 µM
TGI [7]: > 100 µM
GI50 [8]: > 100 µM
TGI [8]: > 100 µM
GI50 [9]: > 100 µM
TGI [9]: > 100 µM
GI50 [57]: > 100 µM
TGI [57]: > 100 µM
GI50 [15]: > 100 µM
TGI [15]: > 100 µM
GI50 [19]: 0.331 µM
TGI [19]: 1.26 µM
GI50 [23]: > 100 µM
TGI [23]: > 100 µM
GI50 [24]: > 100 µM
TGI [24]: > 100 µM
GI50 [25]: 5.69 µM
TGI [25]: > 100 µM
GI50 [27]: > 100 µM
TGI [27]: > 100 µM
GI50 [28]: > 100 µM
TGI [28]: > 100 µM
GI50 [31]: > 100 µM
TGI [31]: > 100 µM
GI50 [32]: 3.8 µM
TGI [32]: > 100 µM
GI50 [36]: 0.259 µM
TGI [36]: 0.635 µM
GI50 [58]: 3.71 µM
TGI [58]: > 100 µM
GI50 [42]: > 100 µM
TGI [42]: > 100 µM
GI50 [44]: > 100 µM
TGI [44]: > 100 µM
GI50 [45]: > 100 µM
TGI [45]: > 100 µM
GI50 [46]: > 100 µM
TGI [46]: > 100 µM
GI50 [47]: > 100 µM
TGI [47]: > 100 µM
GI50 [48]: 2.98 µM
TGI [48]: > 100 µM
GI50 [49]: 16.8 µM
TGI [49]: > 100 µM
GI50 [56]: > 100 µM
TGI [56]: > 100 µM
